Assay results as given in US20220242853A1, “MODIFIED CYANINE DYES AND CONJUGATES THEREOF” (BRACCO IMAGING S.P.A., priority 2019, published 2022).

Experiments:
[1] = Optical properties: excitation/emission maxima and absolute fluorescence quantum yield; type: physicochemical
Experimental: Analysis were performed with a Waters Atlantis dC18 5 μm, 4.6×150 mm column using a gradient of phase A CH3COONH4 10 mM and phase B acetonitrile. Measured mass/charge ratios are listed for each compound. A dual-beam UV-VIS spectrophotometer (Lambda 40, Perkin Elmer) was used to determine the absorbance (Abs) of the compounds of the invention. […] The measurements were performed using an excitation wavelength at maximum absorbance of different dyes, and the sample was excited with a […] Xenon Light Source. Detection was performed by photomultiplier tubes (PMT-NIR) cooled detector or by TBX-04 detector. Dye solutions were carefully prepared to have an absorbance lower than 0.1 (optical densities) to minimize re-absorption phenomena. The compounds of the invention have been characterized in terms of their optical properties in vitro in aqueous medium (i.e., water/PBS pH 7.4) and in a clinical chemistry control serum (Seronorm, Sero SA), mimicking the chemical composition and optical properties of human serum. All dye or dye-conjugate solutions were freshly prepared.

[2] = Biodistribution and elimination by optical imaging after intravenous administration; type: in vivo, Balb/c nu/nu mice; conditions: ex vivo, 24 hours after iv 1 nmol/mouse
Experimental: Biodistribution and elimination of the fluorescent agents of the invention was evaluated by optical imaging after intravenous administration in male Balb/c nu/nu mice, 6-10 weeks of age (Charles River Laboratories). Briefly, mice housed 4 per cage and fed with VRF1 (P) sterile diet (Special Diets Services Ltd) up to the end of the acclimation period (5 days). Then, AIN-76a rodent diet irradiated (Research Diets), a special diet that reduces auto-fluorescence, was used up to the end of the experiments. Imaging experiments were performed using the preclinical optical system IVIS Spectrum (Perkin Elmer).
In vivo imaging was performed under gas anesthesia (Sevofluorane 6-8% in oxygen). Animals were intravenously injected with the compounds and imaged longitudinally at 30 min, 1 h, 2 h, 3 h, 4 h, 6 h, and 24 h post-administration. Thus, animals were euthanized by anesthesia overdose, and the main tissues and organs of interest were excised for ex vivo optical imaging. Regions of interest (ROIs) were drawn on the tissues of interest for each fluorescence image at every time point to evaluate signal intensity (expressed as Average adiant Efficiency). The ratio between the fluorescence signal in the muscle (background tissue) and excretory organs (kidney, liver) was then calculated to assess the contrast. The tissue half-life was calculated by fitting the fluorescence signal decay in the muscle with a bi-exponential decay equation model using GraphPad Prism Software (version 5 for Windows).

[3] = target: T1, human recombinant integrin αvβ3 (Homo sapiens, UniProt P05106+P06756); test: Integrin receptor affinity ELISA (vitronectin-coated plates); type: binding
T1 construct: purchased R&D Systems

[4] = system: WM-266-4 human melanoma cells; test: Cell uptake by flow cytometry (FACS); type: cell-based
Experimental: The human melanoma cell line WM-266-4 (ATCC, CRL-1676) was used as in vitro model to assess the cell uptake of representative integrin-binding Compounds 1 and 3, based on the high expression of the integrin receptors, particularly αvβ3, on the membrane of these cells (Capasso et al., PlosOne 2014).
Adherent cells at about 70% confluence were incubated with the compounds 1 or 3 (1 μM) for 2h at 37° C. (5% CO2) in presence of Dulbecco's Modified Eagle's Medium (DMEM) supplemented with 10% FBS, 2 mM glutamine, 100 IU/mL penicillin and 100 μg/mL streptomycin. After two washing steps with PBS, cells were detached using 0.1 mM EDTA in PBS, centrifuged and suspended in buffer (PBS, 0.5% BSA, 0.1% NaN3) for flow cytometry experiments. Fluorescence Activated Cell Sorting (FACS) was used to detect the fluorescence signal within the cells, as measure of cell uptake. Samples were excited with an Argon laser and the emission detected using a 670 nm longpass filter. Values of fluorescence intensity were obtained from the histogram statistic produced by the instrument software.
The residual internalization was calculated by considering the value of fluorescence intensity in absence of the competitor as 100%.
Furthermore, to assess the effect of biological fluids on the cell uptake, parallel experiments were performed incubating the cells with a compounds of the invention in presence of human serum from male AB plasma (Sigma Aldrich, H4522) or human albumin (Sigma Aldrich, A9511). The residual internalization was calculated by considering the value of fluorescence intensity in absence of the serum as 100%. Such uptake assessment also represents an indication of the percentage of compound which is sequestered by the plasma proteins, in particular albumin, when it diffuses through the vascular compartment before reaching the tissue of interest and the particular targeted receptor.

[5] = target: T2, human serum albumin (HSA) (Homo sapiens, UniProt P02768); test: Binding affinity to human serum albumin (absorbance peak shift or ultrafiltration method); conditions: for Kd: phosphate buffer, 25° C., one of the two methods, read-out: HSA affinity (KA) (converted)
T2 construct: purchased Sigma Aldrich A9511
Experimental: Binding affinity to human serum albumin (HSA; Sigma Aldrich, A9511) was measured using two methods, according to the level of binding affinity of the compounds.
The first method, optimal for compounds which strongly interact with HSA, is based on the analysis of the absorbance spectrum peak shift after the incubation of the dye in solutions containing HSA. Briefly, the samples were incubated at a fixed concentration (1 μM) with HSA dilutions (1×10^−6-4×10^−4M), in phosphate buffer for 5 min in the spectrophotometer at 25° C. before measurements. The measure was performed at the maximum absorbance wavelength of the shifted peak.
The second method, optimal for compound with low affinity for HSA, is based on measuring the variation of the absorbance of solutions containing the dye and various concentrations of HSA after ultrafiltration. Briefly, each compound was incubated at a fixed concentration (2 μM) with HSA dilutions (1×10^−6-4×10^−4 M), in phosphate buffer. The samples were centrifuged (10,000 g for 30 min at 25° C.) in a Microcon device (10 kDa MWCO, Amicon Ultra-0.5 Centrifugal Filter Unit with Ultracel-10 membrane, Millipore) and the absorbance measurements of the filtrates were obtained with the spectrophotometer at the maximum absorbance wavelength of the fluorophore.
For both methods, the affinity constant (KA, M^−1) was calculated by fitting the raw data with the following formula:
wherein ΔA/b=Absorbance measured (b=1 cm) KRL=KA calculated by regression analysis (curve fitting) Δε·Rt calculated by regression analysis (curve fitting) [L]=Albumin concentration
In the first method, ΔA/b corresponds to the absorbance measured for each sample, whereas in the second method ΔA/b is obtained subtracting the absorbance of the control sample (dye without HSA) to the absorbance of each other sample.
However, the measurement of the affinity constant is more precise when the suitable method is used as a function of the affinity level of the compound.

Compound	Max Em ([1]; PBS pH 7.4)	Max Ex ([1]; PBS pH 7.4)	Φ (absolute fluorescence quantum yield) ([1]; PBS pH 7.4)	Φ (absolute fluorescence quantum yield) ([1]; Seronorm control serum)	Kidney to muscle ratio [2]	Liver to muscle ratio [2]	IC50 [3]	Residual cell uptake in presence of human serum ([4]; 1 μM, 2h at 37° C., uptake without serum = 100%)	Residual uptake in the presence of c(RGDfK) as competitor ([4]; 100 μM c(RGDfK), uptake without competitor = 100%)	Kd [5]	HSA KA ([5]; first method (absorbance peak shift))	HSA KA ([5]; second method (ultrafiltration))
CC(CC[N+]1=C(/C=C/C=C/C=C/C=C2/N(CCCCCC(=O)NCC3C[C@@H]4CC[C@H]5C(=O)N[C@@H](CCCNC(=N)N)C(=O)NCC(=O)N[C@@H](CC(=O)O)C(=O)N[C@H]3C(=O)N45)c3ccc(C(=O)NCC(O)C(O)C(O)C(O)CO)cc3C2(C)C)C(C)(C)c2cc(C(=O)NCC(O)C(O)C(O)C(O)CO)ccc21)S(=O)(=O)[O-] (stereo partly drawn) [Compound 3]	785 nm	757 nm	10.6%	11.7%	2.90 ± 0.55	2.50 ± 0.32	0.00264 ± 0.00035 µM	75%	15%	238 µM		
CC(CC[N+]1=C(/C=C/C=C/C=C/C=C2/N(CCCCCC(=O)O)c3ccc(C(=O)NCC(O)C(O)C(O)C(O)CO)cc3C2(C)C)C(C)(C)c2cc(C(=O)NCC(O)C(O)C(O)C(O)CO)ccc21)S(=O)(=O)[O-] (stereo not drawn) [Compound 4]	785 nm	755 nm	8.9%	13.4%						196 µM		
CC1(C)C(/C=C/C=C/C=C2/N(CCCCCC(=O)O)c3ccc(C(=O)NCC(O)C(O)C(O)C(O)CO)cc3C2(C)C)=[N+](CCCCS(=O)(=O)[O-])c2ccc(C(=O)NCC(O)C(O)C(O)C(O)CO)cc21 (stereo not drawn) [Compound 6]	675 nm	656 nm	35.6%	35.9%						> 1000 µM		
CC1(C)C(/C=C/C=C/C=C2/N(CCCCCC(=O)O)c3ccc(C(=O)NC(CO)(CO)CO)cc3C2(C)C)=[N+](CCCCS(=O)(=O)[O-])c2ccc(C(=O)NC(CO)(CO)CO)cc21 [Compound 7]	675 nm	655 nm	35.1%	35.1%						289 µM		
CC1(C)C(/C=C/C=C/C=C/C=C2\N(CCCCS(=O)(=O)O)c3ccc4ccccc4c3C2(C)C)=[N+](CCCCS(=O)(=O)[O-])c2ccc3ccccc3c21 [ICG, Indocyanine Green, reference compound]	810 nm	780 nm	1.5%	7.8%						2.88 µM		
CN1/C(=C/C=C/C=C/C2=[N+](CCCCCC(=O)O)c3ccc(S(=O)(=O)[O-])cc3C2(C)C)C(C)(C)c2cc(S(=O)(=O)O)ccc21 [Sulfo-Cy5, reference compound]	665 nm	645 nm	27.0%	35.6%								
IRDye 800CW carboxylate [reference compound]											215,000 M^−1	216,000 M^−1
